Measured values published in paper PMC8371461 (Frontiers in Pharmacology, 2021).
Like-named read-outs stand apart in the source and are kept apart here.

Tests used:
Format in all cases: binding
[1] = target: T1, MLK3 (Homo sapiens, UniProt Q16584); experiment: kinome scan; settings: 10 µM
T1 construct: purchased DiscoverX (KINOMEscan)

[2] = target: T2, PIP4K2C (Homo sapiens, UniProt Q8TBX8); experiment: Kd select analysis (DiscoverX)
T2 construct: T7 phage fusion (kinase-tagged phage); purchased DiscoverX; host or cells: BL21-derived E. coli (T7 phage)
Procedure: (§1) Hits are identified by an ultra-sensitive quantitative PCR detecting the specific DNA tag linked to each kinase (Supplementary Figure S2). The drug is used at a concentration of 10 µM and results are expressed as the percentage of signal (kinase PCR detection) with respect to DMSO control conditions. Thirteen hits were identified, with a signal reduction ranging from 0 to 27% (Table 3). Full raw data are presented in Supplementary Table S4. Interactions between 0 and 20% of reduction were considered to be the most significant ones. […] A sub-micromolar affinity (Kd<1 µM) was only seen with two PIKs (PIP4K2C, PI4KB) and GAK (Table 4). Inhibitions curves from these compounds are shown in Supplementary Figure S3.

[3] = target: T3, ANKK1 (Homo sapiens, UniProt Q8NFD2); experiment: Kd select analysis (DiscoverX)
T3 construct: purchased DiscoverX (KINOMEscan)
T3 sequence (Q8NFD2 1-765): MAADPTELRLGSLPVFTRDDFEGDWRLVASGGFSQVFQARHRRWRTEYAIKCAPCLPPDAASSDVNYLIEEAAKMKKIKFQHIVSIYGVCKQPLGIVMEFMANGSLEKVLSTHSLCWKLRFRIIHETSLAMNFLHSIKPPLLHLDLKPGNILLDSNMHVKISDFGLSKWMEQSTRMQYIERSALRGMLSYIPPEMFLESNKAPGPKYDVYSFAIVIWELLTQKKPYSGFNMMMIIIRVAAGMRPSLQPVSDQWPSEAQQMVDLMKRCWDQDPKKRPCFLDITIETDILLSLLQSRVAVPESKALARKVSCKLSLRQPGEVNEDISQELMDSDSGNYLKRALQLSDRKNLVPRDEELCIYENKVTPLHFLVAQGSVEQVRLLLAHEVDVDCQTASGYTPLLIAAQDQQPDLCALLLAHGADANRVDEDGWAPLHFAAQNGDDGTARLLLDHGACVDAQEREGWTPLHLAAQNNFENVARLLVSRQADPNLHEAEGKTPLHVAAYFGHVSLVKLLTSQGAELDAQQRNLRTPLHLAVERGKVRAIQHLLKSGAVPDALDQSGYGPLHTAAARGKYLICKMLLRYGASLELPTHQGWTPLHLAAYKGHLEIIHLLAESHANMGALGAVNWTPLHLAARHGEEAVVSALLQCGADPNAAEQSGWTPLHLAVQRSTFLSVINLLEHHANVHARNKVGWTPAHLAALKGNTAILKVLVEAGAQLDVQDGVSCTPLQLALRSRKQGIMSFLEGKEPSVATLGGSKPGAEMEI
Procedure: as §1

[4] = target: T4, RIOK2 (Homo sapiens, UniProt Q9BVS4); experiment: Kd select analysis (DiscoverX)
T4 construct: T7 phage fusion (kinase-tagged phage); purchased DiscoverX; host or cells: BL21-derived E. coli (T7 phage)
Procedure: as §1

[5] = target: T5, MKNK2 (Homo sapiens, UniProt Q9HBH9); experiment: Kd select analysis (DiscoverX)
T5 construct: purchased DiscoverX (KINOMEscan)
Procedure: as §1

[6] = target: T6, PI4KB (Homo sapiens, UniProt Q9UBF8); experiment: Kd select analysis (DiscoverX)
T6 construct: T7 phage fusion (kinase-tagged phage); purchased DiscoverX; host or cells: BL21-derived E. coli (T7 phage)
Procedure: as §1

[7] = target: T7, HIPK3 (Homo sapiens, UniProt Q9H422); experiment: kinome scan; settings: 10 µM
T7 construct: purchased DiscoverX (KINOMEscan)

[8] = target: T8, RIPK4 (Homo sapiens, UniProt P57078); experiment: kinome scan; settings: 10 µM
T8 construct: purchased DiscoverX (KINOMEscan)

[9] = target: T9, PIM3 (Homo sapiens, UniProt Q86V86); experiment: kinome scan; settings: 10 µM
T9 construct: purchased DiscoverX (KINOMEscan)

[10] = target: T10, SNARK (Homo sapiens, UniProt Q9H093); experiment: kinome scan; settings: 10 µM
T10 construct: purchased DiscoverX (KINOMEscan)

[11] = target: T11, NEK6 (Homo sapiens, UniProt Q9HC98); experiment: kinome scan; settings: 10 µM
T11 construct: purchased DiscoverX (KINOMEscan)

[12] = sub-micromolar affinity, read-out: Kd

T6 sequence (Q9UBF8 whole entry, the tested form may be a part): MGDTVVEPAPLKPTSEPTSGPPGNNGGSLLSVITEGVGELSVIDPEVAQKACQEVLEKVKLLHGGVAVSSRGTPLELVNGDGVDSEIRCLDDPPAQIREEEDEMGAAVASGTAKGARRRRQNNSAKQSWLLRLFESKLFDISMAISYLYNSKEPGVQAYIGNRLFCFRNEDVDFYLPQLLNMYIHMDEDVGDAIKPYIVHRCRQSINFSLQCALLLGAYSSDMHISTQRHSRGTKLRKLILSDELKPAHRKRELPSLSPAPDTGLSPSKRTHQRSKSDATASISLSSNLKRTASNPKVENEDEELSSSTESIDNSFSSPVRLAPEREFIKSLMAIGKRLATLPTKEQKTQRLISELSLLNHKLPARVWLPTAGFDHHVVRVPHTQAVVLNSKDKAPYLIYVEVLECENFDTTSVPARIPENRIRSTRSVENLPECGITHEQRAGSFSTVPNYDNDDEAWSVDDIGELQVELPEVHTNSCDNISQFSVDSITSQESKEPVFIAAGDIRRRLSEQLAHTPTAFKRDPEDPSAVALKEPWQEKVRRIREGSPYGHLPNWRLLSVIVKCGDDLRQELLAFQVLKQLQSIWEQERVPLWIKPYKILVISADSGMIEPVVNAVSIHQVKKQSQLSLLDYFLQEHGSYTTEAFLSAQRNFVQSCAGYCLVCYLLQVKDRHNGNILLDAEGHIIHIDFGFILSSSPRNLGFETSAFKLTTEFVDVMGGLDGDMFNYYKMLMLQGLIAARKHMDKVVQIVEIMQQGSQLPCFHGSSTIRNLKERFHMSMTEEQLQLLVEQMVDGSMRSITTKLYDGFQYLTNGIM
T2 sequence (Q8TBX8 whole entry, the tested form may be a part): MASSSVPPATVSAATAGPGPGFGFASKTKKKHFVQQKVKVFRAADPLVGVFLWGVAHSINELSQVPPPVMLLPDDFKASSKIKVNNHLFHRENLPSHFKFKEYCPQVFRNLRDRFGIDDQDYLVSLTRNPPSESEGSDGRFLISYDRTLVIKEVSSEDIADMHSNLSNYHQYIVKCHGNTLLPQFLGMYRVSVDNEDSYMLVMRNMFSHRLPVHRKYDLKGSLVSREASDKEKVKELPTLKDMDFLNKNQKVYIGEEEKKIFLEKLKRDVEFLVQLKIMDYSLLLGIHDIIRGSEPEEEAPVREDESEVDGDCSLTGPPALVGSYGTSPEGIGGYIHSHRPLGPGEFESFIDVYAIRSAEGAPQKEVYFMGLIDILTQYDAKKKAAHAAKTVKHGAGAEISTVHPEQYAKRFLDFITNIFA
T1 sequence (Q16584 whole entry): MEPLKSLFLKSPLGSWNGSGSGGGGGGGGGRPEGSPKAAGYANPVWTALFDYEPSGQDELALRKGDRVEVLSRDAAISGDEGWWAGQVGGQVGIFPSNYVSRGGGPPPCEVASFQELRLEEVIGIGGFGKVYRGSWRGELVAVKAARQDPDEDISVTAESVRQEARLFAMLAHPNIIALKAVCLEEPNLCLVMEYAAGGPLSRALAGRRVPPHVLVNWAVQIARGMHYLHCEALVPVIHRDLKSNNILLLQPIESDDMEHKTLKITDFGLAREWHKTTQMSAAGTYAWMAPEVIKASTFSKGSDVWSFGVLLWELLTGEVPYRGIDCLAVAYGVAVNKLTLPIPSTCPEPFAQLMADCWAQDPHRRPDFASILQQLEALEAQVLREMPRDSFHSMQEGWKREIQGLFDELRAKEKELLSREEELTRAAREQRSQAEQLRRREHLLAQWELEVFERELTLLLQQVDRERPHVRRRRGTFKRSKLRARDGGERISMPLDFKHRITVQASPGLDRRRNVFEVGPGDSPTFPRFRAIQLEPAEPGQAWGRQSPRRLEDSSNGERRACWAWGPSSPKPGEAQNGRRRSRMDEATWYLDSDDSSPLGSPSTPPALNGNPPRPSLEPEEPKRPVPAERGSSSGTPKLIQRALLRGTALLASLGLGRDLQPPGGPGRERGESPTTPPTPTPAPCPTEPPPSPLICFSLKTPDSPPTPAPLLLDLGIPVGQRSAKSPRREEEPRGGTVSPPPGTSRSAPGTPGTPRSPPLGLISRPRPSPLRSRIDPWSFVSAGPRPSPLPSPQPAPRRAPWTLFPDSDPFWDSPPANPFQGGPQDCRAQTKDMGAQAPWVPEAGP
T11 sequence (Q9HC98 whole entry): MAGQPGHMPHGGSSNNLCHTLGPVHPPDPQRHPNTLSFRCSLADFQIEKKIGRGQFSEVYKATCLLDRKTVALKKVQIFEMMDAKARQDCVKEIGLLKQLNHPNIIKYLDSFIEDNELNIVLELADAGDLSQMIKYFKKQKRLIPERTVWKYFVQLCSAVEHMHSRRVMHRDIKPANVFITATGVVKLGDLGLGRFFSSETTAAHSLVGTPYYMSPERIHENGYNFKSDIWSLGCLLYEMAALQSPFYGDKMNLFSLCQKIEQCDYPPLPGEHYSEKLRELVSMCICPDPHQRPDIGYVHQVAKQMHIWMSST
T4 sequence (Q9BVS4 whole entry, the tested form may be a part): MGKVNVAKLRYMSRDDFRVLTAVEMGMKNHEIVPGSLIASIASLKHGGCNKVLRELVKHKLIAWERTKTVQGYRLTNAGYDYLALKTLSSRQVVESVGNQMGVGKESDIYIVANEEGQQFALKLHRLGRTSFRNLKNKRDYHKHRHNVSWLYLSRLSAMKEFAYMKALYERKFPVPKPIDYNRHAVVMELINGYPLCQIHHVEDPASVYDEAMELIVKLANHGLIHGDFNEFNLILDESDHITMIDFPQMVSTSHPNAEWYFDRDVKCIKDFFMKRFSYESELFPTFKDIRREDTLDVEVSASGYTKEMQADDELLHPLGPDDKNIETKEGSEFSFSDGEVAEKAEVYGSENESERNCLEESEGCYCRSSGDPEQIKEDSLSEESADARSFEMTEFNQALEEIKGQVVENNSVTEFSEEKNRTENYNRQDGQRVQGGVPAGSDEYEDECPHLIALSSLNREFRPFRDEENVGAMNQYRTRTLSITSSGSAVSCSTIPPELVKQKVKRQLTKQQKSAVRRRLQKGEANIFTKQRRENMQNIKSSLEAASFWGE
T5 sequence (Q9HBH9 whole entry): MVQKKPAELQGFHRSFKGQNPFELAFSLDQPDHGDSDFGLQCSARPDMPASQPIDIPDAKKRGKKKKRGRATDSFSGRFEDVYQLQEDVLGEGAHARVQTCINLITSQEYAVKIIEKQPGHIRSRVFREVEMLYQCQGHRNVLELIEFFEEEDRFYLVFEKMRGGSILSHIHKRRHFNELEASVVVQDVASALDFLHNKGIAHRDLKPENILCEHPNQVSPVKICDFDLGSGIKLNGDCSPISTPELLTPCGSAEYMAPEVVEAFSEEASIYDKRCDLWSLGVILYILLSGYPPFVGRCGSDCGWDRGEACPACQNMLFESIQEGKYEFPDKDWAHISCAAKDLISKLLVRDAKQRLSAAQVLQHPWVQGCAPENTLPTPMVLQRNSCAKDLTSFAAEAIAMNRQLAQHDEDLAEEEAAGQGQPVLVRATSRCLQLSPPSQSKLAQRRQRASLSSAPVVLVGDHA
T7 sequence (Q9H422 whole entry): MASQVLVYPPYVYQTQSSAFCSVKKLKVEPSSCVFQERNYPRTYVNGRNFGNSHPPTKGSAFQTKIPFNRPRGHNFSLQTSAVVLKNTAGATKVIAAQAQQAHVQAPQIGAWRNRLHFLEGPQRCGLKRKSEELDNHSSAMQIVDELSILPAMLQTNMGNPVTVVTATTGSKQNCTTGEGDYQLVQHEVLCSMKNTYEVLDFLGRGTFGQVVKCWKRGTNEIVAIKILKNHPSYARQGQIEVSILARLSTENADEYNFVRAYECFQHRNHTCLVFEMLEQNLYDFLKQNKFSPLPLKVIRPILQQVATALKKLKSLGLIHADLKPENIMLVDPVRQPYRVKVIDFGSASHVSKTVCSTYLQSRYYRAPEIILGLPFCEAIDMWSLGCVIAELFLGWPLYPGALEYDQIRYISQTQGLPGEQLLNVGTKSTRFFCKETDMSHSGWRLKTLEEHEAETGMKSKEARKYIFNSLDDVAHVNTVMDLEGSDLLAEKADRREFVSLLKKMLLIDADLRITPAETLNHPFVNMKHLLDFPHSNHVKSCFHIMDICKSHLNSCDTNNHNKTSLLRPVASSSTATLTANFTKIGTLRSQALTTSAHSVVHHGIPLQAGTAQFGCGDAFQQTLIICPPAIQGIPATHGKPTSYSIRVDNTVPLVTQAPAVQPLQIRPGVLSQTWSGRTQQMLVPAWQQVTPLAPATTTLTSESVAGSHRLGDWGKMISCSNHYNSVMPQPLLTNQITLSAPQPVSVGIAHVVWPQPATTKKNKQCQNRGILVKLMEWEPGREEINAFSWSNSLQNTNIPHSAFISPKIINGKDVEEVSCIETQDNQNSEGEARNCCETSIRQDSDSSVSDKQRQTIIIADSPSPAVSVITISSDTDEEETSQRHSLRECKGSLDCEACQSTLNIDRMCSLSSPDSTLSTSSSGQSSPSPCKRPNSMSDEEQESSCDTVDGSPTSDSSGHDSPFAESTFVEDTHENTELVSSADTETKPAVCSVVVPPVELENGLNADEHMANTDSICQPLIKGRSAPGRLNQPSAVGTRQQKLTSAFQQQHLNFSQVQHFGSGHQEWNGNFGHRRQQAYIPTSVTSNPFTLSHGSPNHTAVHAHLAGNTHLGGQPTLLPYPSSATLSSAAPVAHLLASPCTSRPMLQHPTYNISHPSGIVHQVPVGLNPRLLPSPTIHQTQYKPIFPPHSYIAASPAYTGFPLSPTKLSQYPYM

Nc1ccc(N=Nc2ccccc2)c(N)n1 [phenazopyridine, 2,6-diamino-3-(phenylazo)pyridine] showed a kinase inhibition [1] of 100, a Kd ([2]; Phenazopyridine Kd (nM)) of 540 nM and a Kd [2, 12] of less than 1000 nM. The Kd [3] was 21000 nM, the Kd [4] was 1000 nM and the Kd [5] was 2100 nM. For the same compound, the Kd ([6]; Phenazopyridine Kd (nM)) was 730 nM, the Kd [6, 12] was less than 1000 nM and the kinase inhibition [7] was 98. For the same compound, the kinase inhibition [8] was 100, the kinase inhibition [9] was 100 and the kinase inhibition [10] was 87. It also gave a kinase inhibition [11] of 100.
